Assays:
human TLR8 = molecular target: T1, human TLR8 (Homo sapiens, UniProt Q9NR97); experiment: HEK293-Blue-hTLR-8 cells assay (SEAP reporter, R848 stimulation); format: cell-based; conditions: HEK293-Blue-hTLR8 cells, R848, 20 hrs; read-out: HEK/hTLR8 IC50
T1 construct: host or cells: HEK293 (HEK-Blue)
T1 sequence (Q9NR97 27-1041): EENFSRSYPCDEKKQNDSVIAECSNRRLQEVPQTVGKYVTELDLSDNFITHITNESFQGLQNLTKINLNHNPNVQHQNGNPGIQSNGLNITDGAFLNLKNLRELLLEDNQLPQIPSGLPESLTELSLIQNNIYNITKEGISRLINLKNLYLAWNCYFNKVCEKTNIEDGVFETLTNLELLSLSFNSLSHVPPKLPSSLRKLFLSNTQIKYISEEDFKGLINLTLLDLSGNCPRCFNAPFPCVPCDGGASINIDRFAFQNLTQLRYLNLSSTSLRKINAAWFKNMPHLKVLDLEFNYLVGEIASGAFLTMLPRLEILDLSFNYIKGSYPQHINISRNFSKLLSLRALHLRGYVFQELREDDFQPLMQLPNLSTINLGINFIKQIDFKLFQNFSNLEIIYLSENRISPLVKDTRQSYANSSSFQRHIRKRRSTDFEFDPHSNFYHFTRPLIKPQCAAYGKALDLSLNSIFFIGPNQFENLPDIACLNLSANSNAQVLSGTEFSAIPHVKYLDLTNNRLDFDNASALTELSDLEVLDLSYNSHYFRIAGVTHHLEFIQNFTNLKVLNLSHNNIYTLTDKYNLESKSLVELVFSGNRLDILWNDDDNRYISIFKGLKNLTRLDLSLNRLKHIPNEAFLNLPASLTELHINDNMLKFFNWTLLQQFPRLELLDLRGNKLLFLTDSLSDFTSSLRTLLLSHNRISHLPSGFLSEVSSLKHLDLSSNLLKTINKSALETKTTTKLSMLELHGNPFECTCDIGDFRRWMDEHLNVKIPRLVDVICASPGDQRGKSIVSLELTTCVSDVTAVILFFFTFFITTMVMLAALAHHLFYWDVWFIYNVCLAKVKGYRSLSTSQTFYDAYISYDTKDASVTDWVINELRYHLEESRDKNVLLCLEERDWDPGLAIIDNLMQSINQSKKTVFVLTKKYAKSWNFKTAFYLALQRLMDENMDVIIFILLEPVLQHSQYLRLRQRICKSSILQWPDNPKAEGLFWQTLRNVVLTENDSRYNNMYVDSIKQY
Procedure, shortened: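 HEK293-Blue-hTLR8 cells (NF-κB/AP-1-driven SEAP) in DMEM/10% FBS were treated with serially diluted compound (1% DMSO final) plus R848 for 20 hrs at 37 °C. Supernatant SEAP was measured with QUANTI-Blue after 2 hrs at 37 °C, absorbance 620-655 nm; antagonism seen as reduced reporter.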

CYP2D6 = molecular target: T2, CYP2D6 (Homo sapiens, UniProt P10635); experiment: CYP inhibition assay in human liver microsome; format: in vitro ADME; conditions: human liver microsomes, probe dextromethorphan, 10µM test compound, dextromethorphan substrate, <0: not or weak inhibitor, read-out: CYP 2D6 inhibition %@10µM
T2 construct: tissue BD-Gentest 452117; host or cells: human liver microsomes
T2 sequence (P10635 whole entry): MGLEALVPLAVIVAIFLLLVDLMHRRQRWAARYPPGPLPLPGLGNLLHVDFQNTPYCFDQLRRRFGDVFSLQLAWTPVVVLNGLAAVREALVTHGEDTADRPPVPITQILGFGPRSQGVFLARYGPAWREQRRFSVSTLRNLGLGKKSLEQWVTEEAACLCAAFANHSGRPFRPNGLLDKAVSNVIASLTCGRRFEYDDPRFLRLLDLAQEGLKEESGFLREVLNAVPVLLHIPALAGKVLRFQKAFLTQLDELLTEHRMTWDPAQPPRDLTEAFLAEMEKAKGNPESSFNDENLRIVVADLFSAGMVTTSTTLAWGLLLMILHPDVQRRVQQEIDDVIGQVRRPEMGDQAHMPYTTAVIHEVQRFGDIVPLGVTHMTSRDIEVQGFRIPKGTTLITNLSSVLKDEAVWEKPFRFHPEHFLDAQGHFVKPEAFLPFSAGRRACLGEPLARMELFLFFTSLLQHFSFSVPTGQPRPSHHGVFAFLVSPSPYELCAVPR
Procedure, shortened: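 HLM mixed with CYP2D6 substrate, preincubated 10 min at 37 °C, started with NADPH regenerating system and run 10 min at 37 °C before acetonitrile quench. Metabolite measured by RapidFire MS/MS against D3-dextrorphan internal standard. % inhibition scaled between DMSO and concentrated-inhibitor controls.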

**Q.** `C[C@@H]1CN(c2ccc(C#N)c3ncccc23)C[C@H](CN2CC3(C2)CN(c2cc4c(cn2)CCNC4)CCO3)O1` [Example 48, 5-[(2R,6S)-2-methyl-6-[[8-(5,6,7,8-tetrahydro-2,6-naphthyridin-3-yl)-5-oxa-2,8-diazaspiro[3.5]nonan-2-yl]methyl]morpholin-4-yl]quinoline-8-carbonitrile] was tested. Which IC50 (human TLR8) did it give?
**A.** 8 nM

**Q.** What about the inhibition at 10 min, 10 µM (CYP2D6) of the same compound?
**A.** -12%

**Q.** `C[C@@H]1CN(c2ccc(C#N)c3ncccc23)C[C@H](CN2CC3(C2)CN(c2ccc4c(n2)CCNC4)CCO3)O1` [Example 49, 5-[(2R,6S)-2-methyl-6-[[8-(5,6,7,8-tetrahydro-1,6-naphthyridin-2-yl)-5-oxa-2,8-diazaspiro[3.5]nonan-2-yl]methyl]morpholin-4-yl]quinoline-8-carbonitrile] was tested. Which IC50 (human TLR8) did it give?
**A.** < 3 nM

**Q.** And the inhibition at 10 min, 10 µM (CYP2D6)?
**A.** 22%

**Q.** What does the source list for `C[C@@H]1CN(c2ccc(C#N)c3ncccc23)C[C@H](CN2CC3(C2)CN(c2cnc4c(n2)CCNC4)CCO3)O1` [Example 50, 5-[(2R,6S)-2-methyl-6-[[8-(5,6,7,8-tetrahydropyrido[3,4-b]pyrazin-2-yl)-5-oxa-2,8-diazaspiro [3.5]nonan-2-yl]methyl]morpholin-4-yl] quinoline-8-carbonitrile]?
**A.** IC50 (human TLR8): < 3 nM; inhibition at 10 min, 10 µM (CYP2D6): 10.5%

**Q.** Which IC50 (human TLR8) does the source give for `C[C@@H]1CN(c2ccc(C#N)c3ncccc23)C[C@H](CN2C[C@@H]3[C@@H](C2)OCCN3c2cnc3c(c2)CCNC3)O1` [Example 52, 5-[(2S,6R)-2-[[(4aR,7aR)-4-(5,6,7,8-tetrahydro-1,7-naphthyridin-3-yl)-2,3,4a,5,7,7a-hexahydropyrrolo[3,4-b][1,4]oxazin-6-yl]methyl]-6-methylmorpholin-4-yl]quinoline-8-carbonitrile] here?
**A.** 26 nM

**Q.** What about the inhibition at 10 min, 10 µM (CYP2D6) of the same compound?
**A.** 5%

**Q.** Which results are given for `C[C@@H]1CN(c2ccc(C#N)c3ncccc23)C[C@H](CN2CCN(c3cnc4c(c3)CNCC4)C(C)(C)C2)O1` [Example 56, 5-[(2S,6R)-2-[[3,3-dimethyl-4-(5,6,7,8-tetrahydro-1,6-naphthyridin-3-yl)piperazin-1-yl]methyl]-6-methyl-morpholin-4-yl]quinoline-8-carbonitrile]?
**A.** IC50 (human TLR8): 12 nM; inhibition at 10 min, 10 µM (CYP2D6): -2.5%

**Q.** For `C[C@@H]1CN(c2ccc(C#N)c3ncccc23)C[C@H](CN2CCC(Nc3ncc4c(n3)CCNC4)C2)O1` (stereo partly drawn) [Example 57, 5-[(2R,6S)-2-methyl-6-[[3-(5,6,7,8-tetrahydropyrido [4,3-d]pyrimidin-2-ylamino)pyrrolidin-1-yl]methyl]morpholin-4-yl] quinoline-8-carbonitrile], which IC50 (human TLR8) is on record?
**A.** 37 nM

**Q.** What about the inhibition at 10 min, 10 µM (CYP2D6) of the same compound?
**A.** -8%

**Q.** What does the source list for `COC1CNCc2ccc(N3CCN(C[C@H]4CN(c5ccc(C#N)c6ncccc56)C[C@@H](C)O4)CC3)cc21` (stereo partly drawn) [Example 58, 5-[(2S,6R)-2-[[4-(4-methoxy-1,2,3,4-tetrahydroisoquinolin-6-yl)piperazin-1-yl]methyl]-6-methyl-morpholin-4-yl]quinoline-8-carbonitrile]?
**A.** IC50 (human TLR8): 15 nM; inhibition at 10 min, 10 µM (CYP2D6): 13%

**Q.** For `C[C@@H]1CN(c2ccc(C#N)c3ncccc23)C[C@H](CN2CCN(c3ccc4c(n3)CNCC4)CC2)O1` [Example 69, 5-[(2R,6S)-2-methyl-6-[[4-(5,6,7,8-tetrahydro-1,7-naphthyridin-2-yl)piperazin-1-yl]methyl]morpholin-4-yl]quinoline-8-carbonitrile], which IC50 (human TLR8) is on record?
**A.** 5 nM

**Q.** And the inhibition at 10 min, 10 µM (CYP2D6)?
**A.** 8.5%

**Q.** How did the IC50 (human TLR8) turn out when `C[C@@H]1CN(c2ccc(C#N)c3nccnc23)C[C@H](CN2CCN(c3cc4c(cn3)CCNC4)CC2)O1` [Example 80, 8-[(2R,6S)-2-methyl-6-[[4-(5,6,7,8-tetrahydro-2,6-naphthyridin-3-yl)piperazin-1-yl]methyl]morpholin-4-yl]quinoxaline-5-carbonitrile] was run?
**A.** 7 nM

**Q.** What about the inhibition at 10 min, 10 µM (CYP2D6) of the same compound?
**A.** 7%

Source: patent EP3807270B1, “NOVEL HETEROARYL HETEROCYCLYL COMPOUNDS FOR THE TREATMENT OF AUTOIMMUNE DISEASE” (F. Hoffmann-La Roche AG, priority 2018, dated 2019)
